Test results taken from a melting point compilation (Tetko et al.; mined from patent text by program, amines drawn as free bases though some values may be those of a salt).

melting point [°C]	Compound
104 to 105	Cc1oc(-c2ccco2)nc1COc1ccc(COc2nn(Cc3ccccc3)cc2C=O)cn1
97 to 100	CCC1(O)C(C)=CC(=O)N1c1ccccc1 (centres undefined)
179 to 181	CN1CCN(CCCCCC(=O)N2c3ccccc3C(=O)Nc3cccnc32)CC1
114 to 115	CCn1c(CCO)nc(N2CCc3ccccc3CC2)c(C#N)c1=O
140 to 142	CC1(C)Nc2ccccc2NC1=S
161 to 162	Cc1sc(-c2ccccc2)nc1COc1ccc(COc2ncccc2CC#N)cc1
60 to 70	COC(=O)CN1CCC[C@H](OCc2cc(C(F)(F)F)cc(C(F)(F)F)c2)[C@@H]1c1ccccc1 (relative stereo)
79 to 81	CCc1ccc(OC(=O)c2ccccc2)c(C(=O)c2ccc(Cl)cc2)c1
294	Cn1ncc(C(=O)O)c1C(=O)Nc1ccc2nc(N3CCOCC3)nn2c1
115 to 116	CCCCC1=C(c2ccc(F)cc2)C(=NO)CC1
158 to 159	O=c1c(CO)csc2ccc3ccccc3c12
204	OC1CSC(Oc2cnccc2-c2ccc(C(F)(F)F)cc2)C(O)C1O (centres undefined)
123 to 134	CC(C)COc1nc(N)c2ncn(C3CCCCC3)c2n1
68 to 69	CCOC(=O)OCC1(C)COC(=O)OC1
126 to 128	CCc1ccc(-c2c(Cl)c(CCl)nc3sc4c(c23)CCN(C(=O)OCc2ccccc2)C4)cc1
152 to 153	CS(=O)(=O)c1ccc(-c2sc(COc3cccc(Cl)c3)nc2-c2ccccc2F)cc1
164 to 166	COc1cc2c(c(OC(C)=O)c1)C1CCC3(C)C(=O)C(Cl)CC3C1CC2 (centres undefined)
125	Cc1cc(-n2ccnc2)c2cccc(OCc3c(Cl)ccc(S(=O)(=O)N4CCCC4C(=O)NCC4CCN(CC(=O)CC(=O)O)CC4)c3Cl)c2n1 (centres undefined)
74 to 75	CCCCOC1C=CC(=O)N1S(=O)(=O)c1ccccn1 (centres undefined)
78.2	C=CCC(C#N)(C#N)Cc1c(F)c(F)c(F)c(F)c1F

Continued, molecule first:

Compound	melting point [°C]
CCCCC(=O)NCCC(=O)O	73 to 76
O=C(Nc1ccccc1S(=O)(=O)c1ccccc1)N[C@@H](Cc1ccc(Nc2nccc3ccncc23)cc1)C(=O)O	184
CCOC(=O)c1cn(-c2nccs2)c2nc(Cl)cc(Cl)c2c1=O	226 to 227
COCCn1nc2c(N)nc3ccccc3c2c1CC(C)(C)C#N	206 to 208
CN(C)c1ccc(C2(Oc3ccccc3)OC(=O)c3ccc(N(C)C)cc32)cc1 (centres undefined)	158 to 159
COc1ccnc(CSc2nc3c(OC(F)F)c(OC)c(OC)cc3[nH]2)c1C	177 to 179
C[C@H]1C(=O)NC(=O)N1CC(=O)Nc1c2c(nc3ccccc13)CCCC2	260 to 263
COc1cccc(Cn2cnc3c(-c4ccco4)ncnc32)c1	138 to 139
CC(=O)Oc1ccc(-c2ccc3cc(C(=O)O)ccc3c2)cc1	256 to 258
CC(C(=O)O)c1ccc(-c2ccc(F)cc2)c(O)c1 (centres undefined)	138 to 142
CCCCCCCCCC(=O)N(O)CCCCCC	37
N=C1NCCCN1Cc1ccc(Cl)nc1	220
O=C(O)COc1cc(Cl)c2c(c1)OCC(c1ccccc1)C2=O (centres undefined)	171 to 173
CC(O)Cn1nc(Br)c([N+](=O)[O-])c1NCc1ccccc1 (centres undefined)	81.3
CCCCCC(=O)OCc1nccc2[nH]c(=O)ccc12	158 to 159
COC(=O)NC(=N)c1ccc(-n2nc(C)n(-c3ccc(CCC(=O)OCC(C)C)cc3)c2=O)cc1	200 to 201
COc1ccc(NC(=O)c2ccccc2NC(=O)c2ccc(C(C)(C)C)cc2)cc1	208 to 210
Cc1c(-c2c[nH]cc2C#N)cccc1C(F)(F)F	99 to 100
O=C(O)c1ccc(NC(=O)C(F)(F)F)nc1	> 255
